Laboratory results from patent publication US11339130B1 (Blade Therapeutics, Inc., priority 2016, dated 2022).

Biological target: T1, rat calpain 1 (Rattus norvegicus, UniProt P97571)
T1 construct: made in house
Test: Calpain binding: crystal structure interaction distances, rat calpain 1
Details: for Interaction Distances P1-Gly113 / Interaction Distances P1-Gly207 / Interaction Distances P1-Met260 / Interaction Distances P1-Ser206 / Interaction Distances P2-Ala273 / Interaction Distances P2-Gly208 / Interaction Distances P2-Gly271 / Interaction Distances P2-His272 / Interaction Distances P2-Ser251 / Interaction Distances P3-Gly207 / Interaction Distances P3-Gly208 / Interaction Distances P3-Ser209: non-polar interactions with rat calpain 1; for Interaction Distances R^10-Gly271 / Interaction Distances R^11-Gly208 / Interaction Distances R^12-His272 / Interaction Distances R^13-Cys115 / Interaction Distances R^13-Gln109: polar interactions with rat calpain 1
Experimental: Calpain 9 Crystallization: A 10 mg/ml solution of rat calpain 1 or human calpain 9 (obtained as described above) was prepared in 50 mM tris (pH 8), 0.5 M NaCl, 1 mM EDTA, 1 mM CaCl2), and 1 mM beta-mercaptoethanol against MCSG1 screen condition C2 (Anatrace, Maumee, Ohio) containing 0.2 M LiSO4, 0.1 M bis-tris (pH 5.5), and 25% PEG 3350. The solution contained 2.5 mM of test compound supplemented with 20% ethylene glycol as a cryo-protectant. The bound protein was crystallized using vapor diffusion, sitting drop, at […]. The space group was P 41 21 2, with unit cell dimensions of 97.2 Å, 97.2 Å, 173.4 Å.
Calpain 1 preparation, crystallization, and data collection: Suitable constructs for expression of rat calpain 1 had been previously established. Expression was performed according to previously established protocols. A purification protocol was established and homogeneous protein was produced in preparative amounts. The calpain 1 protein was purified comprising affinity and gel filtration chromatography steps. This procedure yielded homogenous protein with a purity greater 95% as judged from Coomassie stained SDS-PAGE. The purified protein was used in crystallization trials with test compounds employing both, a standard screen with approximately 1200 different conditions, as well as crystallization conditions identified using literature data. Conditions initially obtained were optimised using standard strategies, systematically varying parameters critically influencing crystallization, such as temperature, protein concentration, drop ratio, and others. These conditions were also refined by systematically varying pH or precipitant concentrations. Crystals were flashfrozen and measured at a temperature of 100 K. The X-ray diffraction data were collected from complex crystals ligands at a synchrotron source using cryogenic conditions. Data were processed using software programs XDS and XSCALE
Key interactions between test compound moieties (with reference to the variables of Formula II) and calpain 1 or calpain 9 residues were determined as set forth in Tables 4-7 below.

T1 sequence (P97571 29-356 limits assumed): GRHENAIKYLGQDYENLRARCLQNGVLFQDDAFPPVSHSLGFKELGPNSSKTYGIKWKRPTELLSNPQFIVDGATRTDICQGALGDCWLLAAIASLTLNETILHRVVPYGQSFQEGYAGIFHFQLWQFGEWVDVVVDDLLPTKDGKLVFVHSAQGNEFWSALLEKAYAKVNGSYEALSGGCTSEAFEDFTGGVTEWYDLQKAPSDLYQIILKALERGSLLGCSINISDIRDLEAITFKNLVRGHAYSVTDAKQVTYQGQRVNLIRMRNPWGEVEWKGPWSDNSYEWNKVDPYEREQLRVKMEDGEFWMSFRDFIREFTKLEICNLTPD

Interaction Distances P1-Gly113 | Interaction Distances P1-Gly207 | Interaction Distances P1-Met260 | Interaction Distances P1-Ser206 | Interaction Distances P2-Ala273 | Interaction Distances P2-Gly208 | Interaction Distances P2-Gly271 | Interaction Distances P2-His272 | Interaction Distances P2-Ser251 | Interaction Distances P3-Gly207 | Interaction Distances P3-Gly208 | Interaction Distances P3-Ser209 | Interaction Distances R^10-Gly271 | Interaction Distances R^11-Gly208 | Interaction Distances R^12-His272 | Interaction Distances R^13-Cys115 | Interaction Distances R^13-Gln109 | SMILES
4.0 Å | 3.7 Å | 3.3 Å | 4.4 Å | 4.1 Å | 3.2 Å | 3.2 Å | 4.2 Å | 4.4 Å | 3.7 Å | 3.3 Å | 4.4 Å | 3.21 Å | 2.9 Å | 2.9 Å | 2.91 Å | 2.91 Å | NC(=O)C(=O)[C@H](Cc1ccccc1)NC(=O)c1cnoc1-c1ccccc1 [Compound 60, (S)—N-(4-amino-3,4-dioxo-1-phenylbutan-2-yl)-5-phenylisoxazole-4-carboxamide]
3.8 Å | 3.5 Å | 3.5 Å | 4.1 Å | 4.4 Å | 3.3 Å | 3.4 Å | 4.6 Å | 3.7 Å | 3.6 Å | 3.5 Å | 3.8 Å | 3.28 Å | 2.98 Å | 2.81 Å | 2.96 Å | 3 Å | NC(=O)C(=O)[C@H](Cc1ccccc1)NC(=O)c1cn(C2CC2)nc1-c1ccccc1 [Compound 250, (S)—N-(4-amino-3,4-dioxo-1-phenylbutan-2-yl)-1-cyclopropyl-3-phenyl-1H-pyrazole-4-carboxamide]
